From ChEMBL document CHEMBL1129279, “Structure-antigastrin activity relationships of new spiroglumide amido acid derivatives” (J Med Chem, 1996)
pIC50: −log10 of the molar value.

Experiments:
[1] = biological target: T1, Cholecystokinin receptor type A (Rattus norvegicus, UniProt P30551); assay: Inhibition of [125I]CCK-8 binding to Cholecystokinin type A receptor in rat pancreas
T1 sequence (P30551 whole entry): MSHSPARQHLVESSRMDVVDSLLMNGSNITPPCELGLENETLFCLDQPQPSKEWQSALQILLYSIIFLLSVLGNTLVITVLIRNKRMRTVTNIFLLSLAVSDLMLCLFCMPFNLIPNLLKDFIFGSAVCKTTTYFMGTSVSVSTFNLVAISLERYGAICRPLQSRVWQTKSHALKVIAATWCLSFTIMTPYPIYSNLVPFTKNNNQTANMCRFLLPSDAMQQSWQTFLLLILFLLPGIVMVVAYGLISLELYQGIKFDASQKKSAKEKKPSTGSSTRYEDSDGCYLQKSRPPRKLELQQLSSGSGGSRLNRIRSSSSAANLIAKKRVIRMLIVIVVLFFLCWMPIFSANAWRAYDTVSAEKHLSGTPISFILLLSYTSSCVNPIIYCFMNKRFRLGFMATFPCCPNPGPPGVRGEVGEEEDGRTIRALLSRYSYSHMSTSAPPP

[2] = biological target: Cholecystokinin receptor (Homo sapiens) (UniProt P32239+P32238); assay: Concentration required to inhibit CCK-A receptor/ Concentration required to inhibit CCK-B receptor; assay type: protein assay
Sequence of Cholecystokinin receptor (Homo sapiens) (P32238 whole entry, looked up): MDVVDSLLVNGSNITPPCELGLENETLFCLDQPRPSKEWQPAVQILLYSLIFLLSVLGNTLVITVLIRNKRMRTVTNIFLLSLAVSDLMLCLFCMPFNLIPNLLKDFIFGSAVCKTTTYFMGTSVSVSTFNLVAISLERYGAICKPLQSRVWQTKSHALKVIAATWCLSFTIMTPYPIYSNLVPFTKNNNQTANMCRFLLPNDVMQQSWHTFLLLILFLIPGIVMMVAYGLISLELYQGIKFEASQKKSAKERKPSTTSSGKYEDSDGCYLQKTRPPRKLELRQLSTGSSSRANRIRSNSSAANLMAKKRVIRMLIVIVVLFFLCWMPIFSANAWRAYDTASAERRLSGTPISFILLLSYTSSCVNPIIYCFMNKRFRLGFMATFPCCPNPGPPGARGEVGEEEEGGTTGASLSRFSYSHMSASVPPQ
Sequence of Cholecystokinin receptor (Homo sapiens) (P32239 whole entry, looked up): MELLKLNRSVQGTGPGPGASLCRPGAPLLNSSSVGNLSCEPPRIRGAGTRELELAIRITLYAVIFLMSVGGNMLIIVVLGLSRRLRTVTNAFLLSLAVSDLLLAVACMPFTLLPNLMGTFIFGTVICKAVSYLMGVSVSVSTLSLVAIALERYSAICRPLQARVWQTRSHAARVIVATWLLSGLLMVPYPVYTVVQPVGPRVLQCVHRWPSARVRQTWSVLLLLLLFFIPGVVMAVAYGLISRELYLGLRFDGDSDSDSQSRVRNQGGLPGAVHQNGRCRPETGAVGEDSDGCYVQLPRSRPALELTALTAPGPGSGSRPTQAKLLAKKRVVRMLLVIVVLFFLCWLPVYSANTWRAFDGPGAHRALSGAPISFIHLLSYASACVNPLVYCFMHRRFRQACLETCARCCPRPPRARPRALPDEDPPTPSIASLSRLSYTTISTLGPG

[3] = biological target: Gastrin/cholecystokinin type B receptor (Cavia porcellus); assay: Inhibition of binding of [3H]N-Me-N-Leu-CCK-8 to cholecystokinin type B receptor in guinea pig brain cortex

| SMILES | pIC50 [1] | Ratio [2] | IC50 (Oryctolagus cuniculus) | further results |
| --- | --- | --- | --- | --- |
| O=C(O)CC[C@@H](NC(=O)CCC(NC(=O)c1cc(Cl)cc(Cl)c1)C(=O)N1CCC2(CCCC2)CC1)C(=O)NC1[C@H]2C[C@@H]3C[C@@H](C[C@H]1C3)C2 (stereo partly drawn) |  |  | Not Active |  |
| O=C(O)CC[C@@H](NC(=O)c1cc(Cl)cc(Cl)c1)C(=O)N1CCC2(CCCC2)CC1 [SPIROGLUMIDE] |  | 9.6 |  | pIC50 [3]: 5.85 |
| O=C(O)CC[C@@H](NC(=O)CCC(NC(=O)c1cc(Cl)cc(Cl)c1)C(=O)N1CCC2(CCCC2)CC1)C(=O)NCCC12C[C@H]3C[C@@H](C1)C[C@@H](C2)C3 (stereo partly drawn) |  |  | Not Active |  |

Further lines, with some results ahead:

| pIC50 [1] | Ratio [2] | IC50 (Oryctolagus cuniculus) | SMILES | further results |
| --- | --- | --- | --- | --- |
| 5.13 | 369 |  | O=C(O)CC[C@H](NC(=O)CCC(NC(=O)c1cc(Cl)cc(Cl)c1)C(=O)N1CCC2(CCCC2)CC1)C(=O)Nc1cccc2ccccc12 (stereo partly drawn) |  |
| 5.47 |  |  | CN(C(=O)CCC(NC(=O)c1cc(Cl)cc(Cl)c1)C(=O)N1CCC2(CCCC2)CC1)[C@H](Cc1c[nH]c2ccccc12)C(=O)O (stereo partly drawn) |  |
|  |  | Not Active | O=C(CCC(NC(=O)c1cc(Cl)cc(Cl)c1)C(=O)N1CCC2(CCCC2)CC1)N[C@@H](Cc1ccccc1)C(=O)O (stereo partly drawn) |  |
